Laboratory results from PubChem BioAssay AID248 (DTP/NCI, 2004).
Several values for one entry are separate records, joined by “and”; a condition that tells them apart may be missing. Equal entries are not always repeated. Toxic doses and inconclusive results are not listed.

Test system: L1210 leukemia ip in BDF1 mice, survival T/C
Assay: NCI In Vivo Anticancer Drug Screen. Data for tumor model L1210 Leukemia (intraperitoneal) in B6D2F1 (BDF1) mice
Details: endpoint: mean survival time, higher = longer survival
Method in brief: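 Ratio derived from survival: compound-dosed mice over vehicle-dosed mice, all bearing a transplantable tumor.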

[1] = dose: 5.0 mg/kg/injection, schedule: Q01DX001 (ip), vehicle: saline
[2] = dose: 10.0 mg/kg/injection, schedule: Q01DX001 (ip), vehicle: saline
[3] = dose: 20.0 mg/kg/injection, schedule: Q01DX001 (ip), vehicle: saline
[4] = dose: 100.0 mg/kg/injection, schedule: Q04DX003 (ip), vehicle: saline
[5] = dose: 200.0 mg/kg/injection, schedule: Q04DX003 (ip), vehicle: saline
[6] = dose: 400.0 mg/kg/injection, schedule: Q04DX003 (ip), vehicle: saline
[7] = dose: 100.0 mg/kg/injection, schedule: Q01DX009 (ip), vehicle: Klucel (hydroxypropylcellulose) (HPC)
[8] = dose: 200.0 mg/kg/injection, schedule: Q01DX009 (ip), vehicle: Klucel (hydroxypropylcellulose) (HPC)
[9] = dose: 400.0 mg/kg/injection, schedule: Q01DX009 (ip), vehicle: Klucel (hydroxypropylcellulose) (HPC)
[10] = dose: 50.0 mg/kg/injection, schedule: Q01DX001 (ip), vehicle: carboxymethylcellulose (CMC)
[11] = dose: 100.0 mg/kg/injection, schedule: Q01DX001 (ip), vehicle: carboxymethylcellulose (CMC)
[12] = dose: 200.0 mg/kg/injection, schedule: Q01DX001 (ip), vehicle: carboxymethylcellulose (CMC)
[13] = dose: 400.0 mg/kg/injection, schedule: Q01DX001 (ip), vehicle: carboxymethylcellulose (CMC)

CC(=O)NC1=C(N2CC2C)C(=O)C(NC(C)=O)=C(N2CC2C)C1=O (configuration not stated)
T/C (dose: 0.25 mg/kg/injection, schedule: Q01DX009 (ip), vehicle: saline): 109 % of control | T/C (dose: 0.31 mg/kg/injection, schedule: Q01DX Z (ip), vehicle: saline): 103 % of control | T/C (dose: 0.5 mg/kg/injection, schedule: Q01DX009 (ip), vehicle: saline): 103 % of control | T/C (dose: 0.63 mg/kg/injection, schedule: Q01DX Z (ip), vehicle: saline): 103 % of control | T/C (dose: 1.0 mg/kg/injection, schedule: Q01DX009 (ip), vehicle: saline): 114 % of control | T/C (dose: 1.25 mg/kg/injection, schedule: Q01DX Z (ip), vehicle: saline): 106 % of control | T/C (dose: 2.0 mg/kg/injection, schedule: Q01DX009 (ip), vehicle: saline): 120 % of control | T/C (dose: 2.5 mg/kg/injection, schedule: Q01DX009 (ip), vehicle: saline): 184 % of control | T/C [1]: 118 % of control | T/C (dose: 5.0 mg/kg/injection, schedule: Q01DX009 (ip), vehicle: saline): 108 % of control | T/C [2]: 171 % of control | T/C (dose: 10.0 mg/kg/injection, schedule: Q01DX Z (ip), vehicle: saline): 96 % of control and 111 % of control | T/C [3]: 118 % of control | T/C (dose: 20.0 mg/kg/injection, schedule: Q01DX009 (ip), vehicle: saline): 111 % of control | T/C (dose: 20.0 mg/kg/injection, schedule: Q01DX Z (ip), vehicle: saline): 103 % of control | T/C (dose: 40.0 mg/kg/injection, schedule: Q01DX Z (ip), vehicle: saline): 178 % of control | T/C (dose: 50.0 mg/kg/injection, schedule: Q01DX009 (ip), vehicle: saline): 100 % of control | T/C (dose: 75.0 mg/kg/injection, schedule: Q01DX001 (ip), vehicle: saline): 186 % of control | T/C (dose: 75.0 mg/kg/injection, schedule: Q01DX009 (ip), vehicle: saline): 92 % of control | T/C (dose: 150.0 mg/kg/injection, schedule: Q01DX001 (ip), vehicle: saline): 112 % of control

OC1OC(CF)C(O)C(O)C1O (configuration not stated)
T/C [4]: 104 % of control | T/C [5]: 115 % of control | T/C [6]: 118 % of control

O=C(NCCCCNC(=O)Nc1ccc(C2=NCCN2)cc1)Nc1ccc(C2=NCCN2)cc1
T/C (dose: 8.0 mg/kg/injection, schedule: Q01DX Z (ip), vehicle: carboxymethylcellulose (CMC)): 88 % of control | T/C (dose: 16.0 mg/kg/injection, schedule: Q01DX Z (ip), vehicle: carboxymethylcellulose (CMC)): 92 % of control | T/C (dose: 31.0 mg/kg/injection, schedule: Q01DX Z (ip), vehicle: carboxymethylcellulose (CMC)): 101 % of control | T/C (dose: 62.0 mg/kg/injection, schedule: Q01DX Z (ip), vehicle: carboxymethylcellulose (CMC)): 123 % of control | T/C (dose: 125.0 mg/kg/injection, schedule: Q01DX Z (ip), vehicle: carboxymethylcellulose (CMC)): 112 % of control

CCCCCCCC(=O)C(C)C
T/C [7]: 95 % of control | T/C (dose: 100.0 mg/kg/injection, schedule: Q04DX003 (ip), vehicle: Klucel (hydroxypropylcellulose) (HPC)): 99 % of control | T/C [8]: 98 % of control | T/C (dose: 200.0 mg/kg/injection, schedule: Q04DX003 (ip), vehicle: Klucel (hydroxypropylcellulose) (HPC)): 100 % of control | T/C [9]: 102 % of control | T/C (dose: 400.0 mg/kg/injection, schedule: Q04DX003 (ip), vehicle: Klucel (hydroxypropylcellulose) (HPC)): 91 % of control

COc1cc(/C=N\N=C\c2ccc(F)cc2)cc(OC)c1OC
T/C [7]: 93 % of control | T/C [8]: 93 % of control | T/C [9]: 88 % of control

C[C@H]1C[C@H]2[C@@H]3CC[C@](O)(C(=O)CF)[C@@]3(C)C[C@H](O)[C@]2(F)[C@@]2(C)C=CC(=O)C=C12
T/C [10]: 105 % of control | T/C [11]: 113 % of control | T/C [12]: 113 % of control | T/C [13]: 113 % of control

O=C1O/C(=C2\OCc3ccccc32)c2ccccc21
T/C [10]: 91 % of control | T/C [11]: 107 % of control | T/C [12]: 100 % of control | T/C [13]: 91 % of control

CC1(c2ccc3ccccc3c2)OCC2(CCCC2)CO1
T/C (dose: 100.0 mg/kg/injection, schedule: Q04DX002 (ip), vehicle: gum acacia): 117 % of control | T/C (dose: 200.0 mg/kg/injection, schedule: Q04DX002 (ip), vehicle: gum acacia): 110 % of control | T/C (dose: 400.0 mg/kg/injection, schedule: Q04DX002 (ip), vehicle: gum acacia): 103 % of control

NCCCCC(N)C(=O)Nc1ccc(Nc2ccc(NC(=O)C(N)CCCCN)cc2)cc1 (configuration not stated)
T/C [1]: 92 % of control | T/C [2]: 90 % of control | T/C [3]: 92 % of control | T/C (dose: 40.0 mg/kg/injection, schedule: Q01DX001 (ip), vehicle: saline): 93 % of control | T/C (dose: 80.0 mg/kg/injection, schedule: Q01DX001 (ip), vehicle: saline): 93 % of control

Cc1ccc([N+](=O)[O-])cc1NC(=O)Nc1ccccc1O
T/C [7]: 92 % of control | T/C [9]: 87 % of control

Cc1c(Cl)c(C)c(Sc2c(C)c(Cl)c(C)c(Br)c2O)c(O)c1Br
T/C (dose: 100.0 mg/kg/injection, schedule: Q01DX001 (ip), vehicle: other): 87 % of control | T/C (dose: 100.0 mg/kg/injection, schedule: Q04DX003 (ip), vehicle: other): 100 % of control | T/C (dose: 200.0 mg/kg/injection, schedule: Q01DX001 (ip), vehicle: other): 88 % of control | T/C (dose: 200.0 mg/kg/injection, schedule: Q04DX003 (ip), vehicle: other): 107 % of control | T/C (dose: 400.0 mg/kg/injection, schedule: Q01DX001 (ip), vehicle: other): 93 % of control | T/C (dose: 400.0 mg/kg/injection, schedule: Q04DX003 (ip), vehicle: other): 113 % of control

O=C(O)CNC(=O)c1ccccc1C(=O)NCC(=O)OCc1ccccc1
T/C (dose: 50.0 mg/kg/injection, schedule: Q01DX001 (ip), vehicle: saline): 94 % of control | T/C (dose: 100.0 mg/kg/injection, schedule: Q01DX001 (ip), vehicle: saline): 91 % of control | T/C (dose: 200.0 mg/kg/injection, schedule: Q01DX001 (ip), vehicle: saline): 91 % of control | T/C (dose: 400.0 mg/kg/injection, schedule: Q01DX001 (ip), vehicle: saline): 97 % of control

Cn1c(=O)oc2ccccc2c1=S
T/C [4]: 96 % of control | T/C [5]: 100 % of control | T/C [6]: 100 % of control

C=CC/C=C/C
T/C (dose: 100.0 mg/kg/injection, schedule: Q01DX001 (ip), vehicle: Klucel (hydroxypropylcellulose) (HPC)): 93 % of control | T/C (dose: 200.0 mg/kg/injection, schedule: Q01DX001 (ip), vehicle: Klucel (hydroxypropylcellulose) (HPC)): 109 % of control | T/C (dose: 400.0 mg/kg/injection, schedule: Q01DX001 (ip), vehicle: Klucel (hydroxypropylcellulose) (HPC)): 100 % of control

CCN(CC)CC(C)OC(=O)c1ccc(N)cc1 (configuration not stated)
T/C [4]: 103 % of control | T/C [5]: 101 % of control

CN(C)c1ccc(N=Nc2cccc(Cl)c2)cc1
T/C [7]: 97 % of control | T/C [8]: 97 % of control | T/C [9]: 90 % of control

CCOC(=O)C(=CN1CCCC1)C(=O)OCC
T/C (dose: 100.0 mg/kg/injection, schedule: Q01DX009 (ip), vehicle: saline): 104 % of control | T/C (dose: 100.0 mg/kg/injection, schedule: Q04DX003 (ip), vehicle: saline with Tween-80): 98 % of control | T/C (dose: 200.0 mg/kg/injection, schedule: Q01DX009 (ip), vehicle: saline): 109 % of control | T/C (dose: 200.0 mg/kg/injection, schedule: Q04DX003 (ip), vehicle: saline with Tween-80): 98 % of control | T/C (dose: 400.0 mg/kg/injection, schedule: Q01DX009 (ip), vehicle: saline): 96 % of control | T/C (dose: 400.0 mg/kg/injection, schedule: Q04DX003 (ip), vehicle: saline with Tween-80): 93 % of control

CCCCCCC(/C=N/N=C(N)N)=N\N=C(N)N
T/C (dose: 15.0 mg/kg/injection, schedule: Q01DX Z (ip), vehicle: carboxymethylcellulose (CMC)): 100 % of control | T/C (dose: 15.0 mg/kg/injection, schedule: Q01DX Z (oral), vehicle: carboxymethylcellulose (CMC)): 101 % of control | T/C (dose: 30.0 mg/kg/injection, schedule: Q01DX Z (ip), vehicle: carboxymethylcellulose (CMC)): 95 % of control | T/C (dose: 30.0 mg/kg/injection, schedule: Q01DX Z (oral), vehicle: carboxymethylcellulose (CMC)): 93 % of control | T/C (dose: 60.0 mg/kg/injection, schedule: Q01DX Z (oral), vehicle: carboxymethylcellulose (CMC)): 109 % of control
